# Measured values published in US20250177353A1 (priority 2021, published 2025).
# Where two headings read alike, the source gives them in different places.
# Experiments:
# [1] = SAD phase I study: plasma pharmacokinetics of 2,4-dinitrophenol after Compound 1 (Table 3); format: in vivo, human; settings: for Vd/F: 500 mg, read-out: Vz/F, Median
# Method: A double-blind, placebo-controlled, phase I study of the safety and pharmacokinetics of single ascending doses of compound 1 in healthy volunteers was conducted. The volunteers were orally administered Compound 1 in doses ranging from 30 mg once daily (QD) to 1400 mg QD in a total of 67 subjects (50 active/17 placebo) across 8 cohorts.
# Screening procedures occurred on Days -28 to -3. For all Cohorts except Cohort 4 (Fed/Fasted), subjects were admitted to the clinical research unit for up to 4 days. […] Following completion of all safety assessments and blood draws for PK analyses, subjects were discharged on Day 3. The Fed/Fasted cohort remained in the unit and were discharged on Day 7.
# Double-blind dosing occurred in cohorts 1 through 8. In these cohorts, six subjects received Compound 1 and two received matching placebo. Doses escalated in the following sequence: 30, 100, 200, 500, 1400, 1050 and 600 mg. • Cohort 4 crossed-over to a fed state (50% fat meal) administration after pharmacokinetics and an inpatient washout had occurred for 72 hours after the first dose with a final dose.
# Subjects were admitted to the clinical research unit on Day 1. […] Blood draws for assessment of PK parameters occurred per schedule of assessments. IC were taken per schedule of assessments. Subjects were released on Day 3 following completion of all blood draws and safety assessments. The Fed/Fasted cohort remained in the unit and was discharged on Day 7.
# Compound 1 or matching placebo was administered orally as a single dose. All subjects except the fed cohort, were dosed in the morning after an 8-hour fast and remained in a semi-reclined position for 1 hour and fasting for 4 hours post-administration. Capsules were swallowed with 240 mL (8 fluid ounces) of room temperature water.
# Cohort 4 was a crossover food effect analysis. Subjects enrolled in Cohort 4 were dosed 30 minutes following the beginning of a standardized (consisting of 50% fat) meal (following a 10-hour fast) to evaluate for food effects. The study drug was administered with room temperature 240 mL (8 fluid ounces) of water.
# [2] = MAD study: 2,4-dinitrophenol pharmacokinetics (accumulation, steady state); format: in vivo, human; settings: MAD cohort 1
# Method: A double-blind, sponsor-open, placebo-controlled, phase I study of the safety, pharmacokinetics and pharmacodynamics of multiple ascending doses of Compound 1 in high MBI volunteers was conducted. The first cohort of 10 healthy high body mass index (BMI) subjects has completed dosing at 200 mg Compound 1. Two more cohorts are also planned at doses of 400 and 550 mg QD.
# With once daily dosing, significant accumulation of 2,4-dinitrophenol is anticipated at steady state.
# [3] = human, in vivo, 500 mg
# [4] = cited from earlier work
# [5] = single dose 30 mg Compound 1, Fasted
# [6] = single dose 100 mg Compound 1, Fasted
# [7] = single dose 200 mg Compound 1, Fasted
# [8] = single dose 500 mg Compound 1, Fasted
# [9] = single dose 500 mg Compound 1, Fed
# [10] = single dose 600 mg Compound 1, Fasted, Micronized
# [11] = single dose 1050 mg Compound 1, Fasted
# [12] = single dose 1050 mg Compound 1, Fasted, Micronized
# [13] = single dose 1400 mg Compound 1, Fasted, Micronized
compound,measurement,setting,value
"O=[N+]([O-])c1ccc(O)c([N+](=O)[O-])c1 [2,4-dinitrophenol]",Vd/F,"[1]; human, oral, single dose 500 mg Compound 1, Fasted",735 L
same,Vd/F,"[1]; human, oral, single dose 500 mg Compound 1, Fed",269 L
same,AUC(0-inf),"[1]; human, oral, single dose 500 mg Compound 1, Fed, read-out: AUCinf, Median",83800 ng·h/mL
same,half-life,"[1]; human, oral, single dose 500 mg Compound 1, Fed, read-out: t1/2, Median (converted)",31.2 h
same,"AUC0/24 h, Geometric Mean",[1]; [5],1440 ng·h/mL
same,"AUC0/24 h, Mean (SD)",[1]; [5],1500 (448) h*ng/ML
same,"AUC0/24 h, Median",[1]; [5],1500 ng·h/mL
same,"CL/F, Geometric Mean",[1]; [5],7.44 L/h
same,"CL/F, Mean (SD)",[1]; [5],8.04 (3.39) L/h
same,"CL/F, Median",[1]; [5],9.84 L/h
same,"AUC0/24 h, Geometric Mean",[1]; [6],4660 ng·h/mL
same,"AUC0/24 h, Mean (SD)",[1]; [6],4710 (711) h*ng/ML
same,"AUC0/24 h, Median",[1]; [6],4820 ng·h/mL
same,"CL/F, Geometric Mean",[1]; [6],7.61 L/h
same,"CL/F, Mean (SD)",[1]; [6],7.75 (1.70) L/h
same,"CL/F, Median",[1]; [6],7.87 L/h
same,"AUC0/24 h, Geometric Mean",[1]; [7],11100 ng·h/mL
same,"AUC0/24 h, Mean (SD)",[1]; [7],11200 (1970) h*ng/ML
same,"AUC0/24 h, Median",[1]; [7],10900 ng·h/mL
same,"CL/F, Geometric Mean",[1]; [7],6.12 L/h
same,"CL/F, Mean (SD)",[1]; [7],6.35 (1.79) L/h
same,"CL/F, Median",[1]; [7],7.19 L/h
same,"AUC%extrap, Median",[1]; [8],12.2%
same,"AUCinf/D, Median",[1]; [8],62.4 ng·h/mL/mg
same,"CL/F, Geometric Mean",[1]; [8],16.5 L/h
same,"CL/F, Mean (SD)",[1]; [8],17.7 (7.65) L/h
same,"CL/F, Median",[1]; [8],16.4 L/h
same,"AUC%extrap, Median",[1]; [9],6.56%
same,"AUCinf/D, Median",[1]; [9],168 ng·h/mL/mg
same,"CL/F, Median",[1]; [9],5.97 L/h
same,"λz, Median",[1]; [9],0.0222 h⁻¹
same,"CL/F, Geometric Mean",[1]; [10],2.80 L/h
same,"CL/F, Mean (SD)",[1]; [10],3.20 (1.62) L/h
same,"CL/F, Median",[1]; [10],2.74 L/h
same,"CL/F, Geometric Mean",[1]; [11],15.2 L/h
same,"CL/F, Mean (SD)",[1]; [11],16.8 (7.60) L/h
same,"CL/F, Median",[1]; [11],18.3 L/h
same,"CL/F, Geometric Mean",[1]; [12],2.20 L/h
same,"CL/F, Mean (SD)",[1]; [12],2.33 (0.715) L/h
same,"CL/F, Median",[1]; [12],2.50 L/h
same,"CL/F, Geometric Mean",[1]; [13],3.96 L/h
same,"CL/F, Mean (SD)",[1]; [13],4.12 (1.43) L/h
same,"CL/F, Median",[1]; [13],3.60 L/h
same,dose accumulation factor,[2]; Compound 1 200 mg QD for 14 days,approximately 3.5 fold
same,time to steady-state,[2]; Compound 1 200 mg daily dosing,7 days
same,AUC increase under fed conditions relative to fasted conditions,[3],> 2.0 fold
same,Cmax increase under fed conditions relative to fasted conditions,[3],> 1.8 fold
same,increase in RMR,"[4]; 2,4-dinitrophenol once daily 1-3 months (Tainter, Simkins)",20-40%
same,weight loss,"[4]; 2,4-dinitrophenol once daily 1-3 months",1.4-2.1 lbs./week
same,tolerability,"[4]; 2,4-dinitrophenol once daily over 1-3 months",well tolerated
same,"2,4-dinitrophenol concentrations associated with adverse increases in body temperatures",[4]; humans (Zhao 2015),"greater than 28,000 ng/ml"
